Laboratory results published in patent publication US20220226470A1, “ANTIBODIES AND METHODS FOR TREATMENT OF INFLUENZA A INFECTION” (HUMABS BIOMED SA, priority 2019, published 2022).

Assays:
Test in all cases: microbe, parasite or virus in culture
Assay type in all cases: cell-based
H3N2 virus = conditions: Influenza A virus, H3N2, MDCK
H1N1 virus = conditions: Influenza A virus, H1N1, MDCK
H3N2 and H1N1 strains = conditions: Influenza A virus, MDCK, read-out: relative calculated IC50

SMILES | IC50 (H3N2 virus) | IC50 (H1N1 virus) | IC50 (H3N2 and H1N1 strains)
CCOC(=O)C1=C[C@@H](OC(CC)CC)[C@H](NC(C)=O)[C@@H](N)C1 [oseltamivir, reference compound] | 7 nM | 9.1 nM | 
CC(=O)N[C@H]1[C@H]([C@H](O)[C@H](O)CO)OC(C(=O)O)=C[C@@H]1N=C(N)N [zanamivir, reference compound] |  |  | 10.7 to 13.7 nM
